Assay results from a melting point compilation (Tetko et al.; mined from patent text by program, amines drawn as free bases though some values may be those of a salt).

melting point	Compound
160 to 161 °C	NCC(c1ccc(OCc2ccccc2)cc1)C1CCCCC1O (mixture of isomers)
280 to 284 °C	Nc1cccc(C=C2NC(=O)NC2=O)c1
97 to 98 °C	CCOC(=O)C1CCN(c2nc(COc3ccc(C=O)cc3OC)c(C)s2)CC1
225 to 229 °C	CCC(CC)c1ccc(Cl)c2nc3n(c12)CCN3c1ccc(C(N)=O)cc1Cl
48 to 50 °C	C=CCc1ccc2oc(C(=O)c3ccc(OC)cc3)c(C)c2c1O
262 to 263 °C	COC1c2ccccc2C(c2ccc([N+](=O)[O-])cc2)=NN(c2nc(=O)n(C)s2)C1(C)OC (centres undefined)
66.8 to 69.2 °C	CCCCCCCCCCC1(CCCCCCCCCC)c2cc(Br)ccc2-c2ccc(N(c3ccccc3)c3ccccc3)cc21
182 to 184 °C	N#CC1=Cc2ccccc2C(N2CCN(N=Cc3ccccn3)CC2)c2ccccc21 (centres undefined)
230 °C	CCn1cc(C(=O)O)c(=O)c2cc(F)c(N3CCNC(c4cc(C)cs4)C3)cc21 (centres undefined)
148 to 150 °C	O=C(C=Cc1ccc(C(F)(F)F)cc1)C=Cc1ccc(C(F)(F)F)cc1
161 to 162 °C	C[C@H](NC(=O)C(SC(=O)c1ccccc1)SC(=O)c1ccccc1)C(=O)O
158 °C	CC(c1ccc(NC=O)c([N+](=O)[O-])c1)n1ccnc1 (centres undefined)
167 to 170 °C	Nc1nc(N)c2ncn([C@H]3C=C[C@@H](O)C3)c2n1 (racemic)
140 °C	COc1ccc(C(C)(C)c2cc(C(C)(C)C)cc(-n3nc4ccc(C(F)(F)F)cc4n3)c2O)cc1
105 to 106 °C	C[Si](C)(C)CCCSCCCNC(=O)n1cc(F)c(=O)[nH]c1=O
106 to 107 °C	N#Cc1ccc(F)cc1-c1ccc(C(F)(F)F)cc1
163 to 165 °C	COC(=O)c1cc(-n2cnc(Br)c2)c(C(F)(F)F)cc1N
113 to 114 °C	O=[N+]([O-])c1cc(F)cc2c1OCC2
254 °C	COc1cc(N)c([N+](=O)[O-])cc1C(=O)O
153 to 157 °C	O=[N+]([O-])c1cc(Cl)c(CCN2CCN(c3nsc4ccccc34)CC2)cc1Cl
126 °C	CC12CC3CC(C1)CC(CC(O)C(c1cccc(Cl)c1)n1ccnc1)(C3)C2 (centres undefined)
102 °C	COC(=O)CS(=O)(=O)CCCCCn1nc(-c2ccccc2)c(-c2ccccc2)c1-c1ccccc1
229 to 231 °C	c1ccc2c(c1)Nc1cc(-c3csc(CN4CCSCC4)n3)ccc1S2
78 to 80 °C	CCCCCC(Oc1ccc(C2=CCCCC2)cc1)C(=O)O (centres undefined)

melting point	Compound
134 to 136 °C	CC(=O)N(C)c1cc([N+](=O)[O-])cc([N+](=O)[O-])c1
140 to 145 °C	Cc1ccc2c(c1)C1CN(CCCC(=O)c3ccc(F)cc3)CCC1N2C (centres undefined)
104 to 106 °C	CCN(CC)CCOc1cccc2c1c1cccc(Cl)c1n2Cc1ccc(F)cc1
172 to 175 °C	COC(=O)c1sccc1Nc1ccc(F)cc1[N+](=O)[O-]
116 °C	CCOC(=O)N1CCC(Nc2ccc(Cl)cc2[N+](=O)[O-])CC1
168 to 169 °C	CCN(CC)CCOc1ccc2c(C(=O)NC(=N)N)cccc2c1
76 to 86 °C	Cc1noc(NS(=O)(=O)c2ccsc2C(=O)Nc2ccc(C(C)(C)C)cc2)c1Br
85 to 88 °C	CCOC(=O)CC(=O)c1cc(F)c(F)c(Br)c1F
253 °C	O=C1c2ccccc2-c2nc3ccc(O)cc3c(Cl)c21
68 to 70 °C	COc1ccc(COc2ccccc2-c2cccc(N)c2)cc1
204 to 206 °C	Cn1c(=O)c(NC(=O)Nc2ccc(F)cc2F)c(-c2ccccc2)c2cc(Cl)ccc21
207 to 217 °C	OC1CSC(Oc2ccc(-c3cncc(F)c3)nc2)C(O)C1O (centres undefined)
128 °C	OC1C2C=CC1C1N=NC21 (centres undefined)
103 to 105 °C	CC(C)[C@H](NC(=O)CCC(=O)c1ccc(F)cc1)C(=O)O
176 to 178 °C	CCC(C)n1cc(Cl)nc(N2CCc3cc(OC)cc(C)c32)c1=O (centres undefined)
57 to 73 °C	CON1C(=O)CC2(CCN(C(=O)C3=CN(Cc4ccccc4)C=CC3)CC2)C1=O
252 to 253 °C	Nc1cc(C(=O)O)cc(S(N)(=O)=O)c1Oc1ccccc1
183 to 184 °C	CNc1nnc(-c2ccc3ncn(-c4ccc(OC(F)(F)F)cc4)c3c2)o1
49 to 58 °C	COc1ccc(CCCNC(=O)c2coc(-c3ccc(/C(=C\CCCCC(=O)O)c4cccnc4)cc3)n2)cc1
92 to 95 °C	C[C@@H](n1nccn1)[C@](O)(Cn1cncn1)c1ccc(F)cc1F
163 °C	CCCCOc1cc(-c2cc3ccccc3[nH]2)ccc1O
194 to 196 °C	COC(=O)c1ccc2c(nc(C)n2Cc2ccccc2)c1C1=NC(C)(C(C)C)C(=O)N1 (centres undefined)
104 to 105 °C	O=C(O)c1cccc(OCCF)c1OCCF
193 to 194 °C	COCCc1nc2c(N)nc3ccccc3c2n1CCCNS(C)(=O)=O

melting point	Compound
169 to 172 °C	CS(=O)(=O)c1ccc(-c2cnn(Cc3ccsc3)c(=O)c2-c2ccc(F)cc2)cc1
201 to 204 °C	O=C(CNN1C(=O)c2ccccc2S1(=O)=O)N[C@@H](Cc1ccccc1)C(=O)O
124 to 126 °C	COC(=O)c1c(OCc2ccccc2)ccc2c1CC[C@@H](N)[C@@H]2O (relative stereo)
244 °C	COc1cc(N)c(C(N)=O)cc1C(=O)N[C@H]1CCN(Cc2ccc(F)cc2)C[C@H]1OC (relative stereo)
268 to 270 °C	CCn1cc(C(=O)O)c(=O)c2cc(F)c(N3CCSC3)nc21
79 to 80 °C	CN[C@@H](Cc1ccc(C(F)(F)F)cc1)[C@H](O)c1ccc(F)cc1 (racemic)
205 to 207 °C	CCc1cc(NC(=O)N2CCc3cc(OC)c(C(F)(F)F)cc32)cc(-c2cccnc2)c1
136 to 137 °C	Cc1nc2ccccc2n1-c1ccc(I)cc1
82.5 to 84.5 °C	CC(=O)NC[C@H]1CN2C(=O)C[C@@H]2O1
249 to 250 °C	CC(=O)c1c(-c2ccc(S(C)=O)cc2)[nH]c(-c2ccncc2)c1C (centres undefined)
266 to 268 °C	O=C(Nc1ccc(-c2nnn[nH]2)cc1)C(F)(F)C(F)(F)C(F)(F)F
80 °C	COC(=O)c1ccc(C(=O)c2cccc3ccccc23)n1C
270 °C	CC(=O)Nc1ccc(Nc2c(CC3CC4C=CC3C4)cc(C(=O)O)cc2S(=O)(=O)NC(C)=O)cc1 (centres undefined)
141 to 142 °C	Cc1ccc(-c2nc(C(F)(F)F)oc2-c2ccc(S(C)(=O)=O)cc2)cc1
218 °C	COc1c(C)c(C(=O)c2ccc3nc(C)oc(=O)c3c2)n2ccccc12
208 to 210 °C	CCn1c(=O)n(-c2ccc(Oc3nc4ccccc4n3C)cc2)c2ncc(Cl)cc21
269 to 271 °C	CC1=C(c2cccc(C(F)(F)F)c2)n2ncc3c(=O)[nH]c(=S)n(c32)C1
109 to 110 °C	CC(=O)c1cc(-c2cccc(F)c2)c(=O)n2c1-c1sccc1CC2
148 to 150 °C	CCOC(OCC)N1C(=O)C(c2ncnc3cc(OCCOC)c(OC)cc23)c2ccccc21 (centres undefined)
189 to 190 °C	c1cc(Nc2ccc3[nH]ncc3c2)ccn1
206 to 208 °C	COc1ccc(C(=O)C=Cc2cc(O)c(O)c([N+](=O)[O-])c2)cc1OC
58 to 60 °C	CC1=Nc2ccc(-c3sc(C#N)cc3C)cc2C2(CCCC2)O1
165 to 168 °C	CC(C)c1cccc(C(C)C)c1NC(=O)NCC1(c2cc(C(F)(F)F)cc(C(F)(F)F)c2)CCCC1
155 to 156 °C	COc1ccc(N2CCN(CCCCc3ccc(C4CCC(=O)N4)cc3)CC2)cc1 (centres undefined)

melting point	Compound
80 to 82 °C	Nn1cccc1-c1ccccc1
112 to 116 °C	C[C@@H]1Cc2ccsc2[C@H](C)N1CCCCNC(=O)c1ccc(NS(C)(=O)=O)cc1 (relative stereo)
78 to 79.3 °C	Nc1ccc(Oc2ccc(Cl)c(Cl)c2)nc1
146 to 147 °C	CCc1ccc2oc(=O)[nH]c2c1
174 to 177 °C	Cc1onc(-c2ccccc2)c1-c1[nH]c2ccccc2c1CCC(=O)N(C)C
88 to 90 °C	CC(=O)NC(=O)CCCCBr
> 260 °C	Cc1nc2ccccc2n1Cc1cc([N+](=O)[O-])ccc1O
100 to 102 °C	CC(C)(C)c1cc(-c2nc(CN3CCCC3)no2)cc(C(C)(C)C)c1O
160 to 163 °C	COC(=O)[C@@H](NC(=O)[C@H](Cc1ccccc1)NC(=O)c1ccccc1)C(C)C
64 to 110 °C	Cc1cc(SC2=C(O)CC(CCc3ccco3)(C(C)C)OC2=O)c(C(C)(C)C)cc1CO (centres undefined)
71 to 75 °C	CCOC(=O)C(=CNC1CC1)C(=O)c1cc(F)c(N2CCC(NC(C)=O)C2)nc1Cl (centres undefined)
114 to 116 °C	CSc1cc(SC)c(N)c(SC)c1N
128 to 130 °C	O=CNC1=NN(c2cccc(F)c2)C(c2ccc(Cl)cc2)C1 (centres undefined)
207 °C	CC1(C)Cc2c(N)c(Cl)cc(C(=O)NC3CCN(CCNc4nc(O)c5cc(Cl)ccc5n4)CC3)c2O1
187 °C	NC(=O)C(=O)NCCc1ccc(OCc2ccccc2)c(OCc2ccccc2)c1
104 to 108 °C	CCN1C[C@@H](O)[C@H](N(C)C(=O)c2ccc([N+](=O)[O-])cc2)C1 (relative stereo)
65 to 66 °C	COC(=O)CC(c1ccc(OC)cc1)N1C(=O)c2ccccc2C1=O (centres undefined)
110 to 114 °C	CCN(CC)CCNC(=O)c1cc(Cl)c(N)cc1OCCS(C)=O (centres undefined)
223 to 225 °C	O=C(Nc1ccc(-c2nc3ccccc3s2)cc1)C(Cl)Cl
148 to 149 °C	Clc1cccc(N2CCN(Cc3cn4cc(Cl)ccc4n3)CC2)c1
191 °C	OC1CSC(Oc2cnccc2C(F)(F)F)C(O)C1O (centres undefined)
174 to 176 °C	CS(=O)(=O)c1ccc(-c2ccc(I)n2-c2ccc(F)cc2)cc1
71 °C	CS(=O)(=O)c1ccc(Cl)cc1Cl

Compound	melting point
CSC(=N[N+](=O)[O-])N(C)SC(Cl)(Cl)Cl	75 to 78 °C
C=CCN1CC(C)N(C(c2cccc(O)c2)c2cccc(C#N)c2)CC1C (centres undefined)	169 to 171 °C
NC1CCc2[nH]c3ccccc3c2C1 (centres undefined)	160 to 166 °C
CC(C)(C)C(=O)Nc1cccc(-c2ccnc3c(C(=O)c4ccco4)cnn23)c1	203 to 204 °C
